{"source": "patent US9663502B2", "about": "“2-Acylamidomethyl and sulfonylamidomethyl benzoxazine carbamates for inhibition of RORgamma activity and the treatment of disease” (Merck Sharp & Dohme Corp., priority 2013, dated 2017)", "target": "human RORgammaT-Ligand Binding Domain (LBD) (Homo sapiens (Human), UniProt P51449)", "sequence (P51449 269-508)": "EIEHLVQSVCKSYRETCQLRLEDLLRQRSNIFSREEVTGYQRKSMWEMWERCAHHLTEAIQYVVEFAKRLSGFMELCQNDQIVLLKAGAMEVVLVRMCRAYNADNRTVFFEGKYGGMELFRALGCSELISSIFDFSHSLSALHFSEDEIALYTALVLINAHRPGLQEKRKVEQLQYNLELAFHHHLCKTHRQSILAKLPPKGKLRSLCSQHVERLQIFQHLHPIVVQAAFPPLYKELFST", "test": "RORγ-Ligand Binding Domain TR-FRET Assay (co-activator peptide SRC1_2 recruitment)", "type": "biochemical"}
{"smiles": "CC(=O)NC[C@H]1CN(S(=O)(=O)c2ccc(F)cc2)c2cc(NC(=O)OC(C3CCCCC3)C(F)(F)F)ccc2O1", "note": "(stereo partly drawn) [Example 23D, 1-cyclohexyl-2,2,2-trifluoroethyl ((S)-2-(acetamidomethyl)-4-((4-fluorophenyl)sulfonyl)-3,4-dihydro-2H-benzo[b][1,4]oxazin-6-yl)carbamate]", "values": [{"measurement": "IC50", "value": 113, "unit": "nM"}]}
